Measured values reported in article PMC5789083, “Mechanisms driving the antibacterial and antibiofilm properties of Hp1404 and its analogue peptides against multidrug-resistant Pseudomonas aeruginosa” (Scientific Reports, 2018).
Where two headings read alike, the source gives them in different places. Where no end group is shown, it is not given here.

Assays:
[1] = test system: P. aeruginosa strains (biofilm formation); assay type: cell-based, Pseudomonas aeruginosa; conditions: 24 h, 37 °C, crystal violet OD595
Protocol: To evaluate the ability of bacterial strains to form biofilms either in the absence or presence of peptides, antibiotic-susceptible P. aeruginosa (ATCC 27853), and various strains of MDR P. aeruginosa were cultured in nutrient broth (NB). […]. The biofilms were fixed with 100% methanol for 15 min, stained with 0.1% crystal violet (CV) for 1 h, and rinsed three times with distilled water (dH2O). After the addition of 95% ethanol, biofilm mass was quantified by measuring OD at 595 nm using a Versa-Max microplate ELISA reader (Molecular Devices). Results were expressed as the percentage of biofilm formed with respect to the control. […] All experiments were performed at least in triplicate.

[2] = test system: HaCaT cells; experiment: Cytotoxicity, MTT assay; assay type: cell-based, human; conditions: 50 µM, 24 h
Protocol: We used the MTT assay to evaluate the toxicity of the peptides toward human skin epithelial cells (HaCaT) as previously described. Briefly, HaCaT cells were seeded at a density of 2 × 10^4 cells per well in 96-well microtiter plates in Dulbecco’s modified Eagle’s medium (DMEM) containing 10% foetal bovine serum (FBS) at 37 °C under 5% CO2 atmosphere. The next day, peptides were added to each well at various final concentrations (higher concentration of 200 µM). After 24 h incubation, culture supernatants were removed. 0.5 mg/mL MTT was added to each well, and the plates were incubated for 4 h at 37 °C. The medium was replaced by dimethyl sulfoxide (DMSO) to dissolve the formazan crystals formed in the wells. The absorbance at 570 nm was measured using a Versa-Max microplate ELISA reader (Molecular Devices). The viability rate was calculated using the following formula: Cell viability (%) = (absorbance of treated sample)/(absorbance of control) × 100.

[3] = test system: Pseudomonas aeruginosa and MRPA strains; experiment: microbe, parasite or virus in culture; assay type: cell-based; conditions: broth micro-dilution, 37 °C, 18–24 h
Source text: Gram-negative (Pseudomonas aeruginosa ATCC 27853) bacterial strains were obtained from the ATCC (American Type Culture Collection; Manassas, VA, USA). Multidrug-resistant strains (Pseudomonas aeruginosa 138, 431, 434, 557, 559, 778, 1034, 1162, 3290, 3399, 3592, 3904, 4007, 4319, 4891, 5018, and 671973) were obtained from the Chonnam National University Hospital (Gwangju, South Korea).
(§1) We examined the activity of each peptide against both pseudomonas aeruginosa and multidrug-resistant strains. The minimal inhibitory concentrations (MICs) of peptides were determined using the broth micro-dilution assay as described previously. Briefly, bacterial strains were cultivated with shaking overnight at 37 °C. The next day, they were diluted to a density of 2 × 10^5 CFU/mL with growth medium. Peptides were serially diluted with 10 mM sodium phosphate buffer. 50 µL bacterial aliquots were mixed with an equal volume of peptide solution, and incubated at 37 °C for 18–24 h. Inhibition of bacterial growth was determined by measuring the absorbance at 600 nm using a Versa Max microplate reader (Molecular Devices, Sunnyvale, CA, USA). The test was performed in triplicate.

[4] = test system: P. aeruginosa 27853; assay type: cell-based, Pseudomonas aeruginosa
Protocol: as §1
The effects of various cations on the antibacterial activities of the parental and analogue peptides against P. aeruginosa 27853 were evaluated as previously described. Bacteria was treated with peptides at a final concentration 25 µM in the presence of physiological salts such as NaCl (50 mM, 100 mM, and 150 mM), CaCl2 (1.25 mM, 2.5 mM, and 5 mM), or MgCl2 (0.5 mM, 1 mM, and 2 mM). The MIC values were determined as described above.

[5] = P. aeruginosa 27853, 5 × 10^5 CFU/mL, 0.2% glucose
[6] = P. aeruginosa 138 (multidrug-resistant), triplicate
[7] = P. aeruginosa 431 (multidrug-resistant), triplicate
[8] = P. aeruginosa 434 (multidrug-resistant), triplicate
[9] = P. aeruginosa 557 (multidrug-resistant), triplicate
[10] = P. aeruginosa 559 (multidrug-resistant), triplicate
[11] = P. aeruginosa 778 (multidrug-resistant), triplicate
[12] = P. aeruginosa 1034 (multidrug-resistant), triplicate
[13] = P. aeruginosa 1162 (multidrug-resistant), triplicate
[14] = P. aeruginosa 3290 (multidrug-resistant), triplicate
[15] = P. aeruginosa 3399 (multidrug-resistant), triplicate
[16] = P. aeruginosa 3543 (multidrug-resistant), triplicate
[17] = P. aeruginosa 3592 (multidrug-resistant), triplicate
[18] = P. aeruginosa 3904 (multidrug-resistant), triplicate
[19] = P. aeruginosa 4007 (multidrug-resistant), triplicate
[20] = P. aeruginosa 4319 (multidrug-resistant), triplicate
[21] = P. aeruginosa 4891 (multidrug-resistant), triplicate
[22] = P. aeruginosa 5018 (multidrug-resistant), triplicate
[23] = P. aeruginosa 671973 (multidrug-resistant), triplicate
[24] = P. aeruginosa ATCC 27853, 2 × 10^5 CFU/mL, A600, triplicate

Substance	MBIC ([1]; P. aeruginosa 434) [µM]	MBIC ([1]; P. aeruginosa 559) [µM]	MBIC ([1]; P. aeruginosa 778) [µM]	MBIC ([1]; P. aeruginosa 1034) [µM]	MBIC ([1]; P. aeruginosa 1162) [µM]	MBIC ([1]; P. aeruginosa 3399) [µM]	MBIC ([1]; P. aeruginosa 3543) [µM]	MBIC ([1]; P. aeruginosa 4007) [µM]	MBIC [1, 5] [µM]	survival rate of HaCaT cells [2] [%]	MIC [3, 6] [µM]	MIC [3, 7] [µM]	MIC [3, 8] [µM]	MIC [3, 9] [µM]	MIC [3, 10] [µM]	MIC [3, 11] [µM]	MIC [3, 12] [µM]	MIC [3, 13] [µM]	MIC [3, 14] [µM]	MIC [3, 15] [µM]	other results
GILGKLWEGVKSIF-NH2 [Hp1404]	25	50	25	25	25	12.5	6.25	25	25	30	12.5	12.5	12.5	6.25	25	12.5	6.25	12.5	12.5	6.25	MIC [3, 16]: 6.25 µM; MIC [3, 17]: 6.25 µM; MIC [3, 18]: 6.25 µM; MIC [3, 19]: 25 µM; MIC [3, 20]: 12.5 µM; MIC [3, 21]: 6.25 µM; MIC [3, 22]: 12.5 µM; MIC [3, 23]: 3.13 µM; MIC [3, 24]: 12.5 µM; MIC ([4]; CaCl2 1.25 mM): >25 µM; MIC ([4]; CaCl2 2.5 mM): >25 µM; MIC ([4]; CaCl2 5 mM): >25 µM; MIC ([4]; MgCl2 0.5 mM): 25 µM; MIC ([4]; MgCl2 1 mM): 25 µM; MIC ([4]; MgCl2 2 mM): >25 µM; MIC ([4]; NaCl 50 mM): 25 µM; MIC ([4]; NaCl 100 mM): >25 µM; MIC ([4]; NaCl 150 mM): >25 µM
ILKKLLKKVKKI-NH2 [Hp1404-T1e]	12.5	12.5	6.25	6.25	6.25	12.5	50	12.5	12.5	100	6.25	3.13	3.13	3.13	6.25	1.56	1.56	1.56	6.25	0.78	MIC [3, 16]: 12.5 µM; MIC [3, 17]: 1.56 µM; MIC [3, 18]: 3.13 µM; MIC [3, 19]: 3.13 µM; MIC [3, 20]: 3.13 µM; MIC [3, 21]: 1.56 µM; MIC [3, 22]: 1.56 µM; MIC [3, 23]: 1.56 µM; MIC [3, 24]: 1.56 µM; MIC ([4]; CaCl2 1.25 mM): 6.25 µM; MIC ([4]; CaCl2 2.5 mM): 12.5 µM; MIC ([4]; CaCl2 5 mM): >25 µM; MIC ([4]; MgCl2 0.5 mM): 3.13 µM; MIC ([4]; MgCl2 1 mM): 3.13 µM; MIC ([4]; MgCl2 2 mM): 12.5 µM; MIC ([4]; NaCl 50 mM): 6.25 µM; MIC ([4]; NaCl 100 mM): 6.25 µM; MIC ([4]; NaCl 150 mM): 12.5 µM
